Source: patent US20230183248A1, “PYRROLO[1,2-D][1,2,4]TRIAZINE-2-YL-ACETAMIDES AS INHIBITORS OF THE NLRP3 INFLAMMASOME PATHWAY” (JANSSEN PHARMACEUTICA NV, priority 2020, published 2023)

Experiments:
IL-1β = assay: PBMC assay: LPS-stimulated IL-1β release; format: cell-based; settings: human PBMCs, 30 min compound pre-incubation, 100 ng/ml LPS for 6 hrs, supernatant, MSD
Experimental: (§1) Peripheral venous blood was collected from healthy individuals and human peripheral blood mononuclear cells (PBMCs) were isolated from blood by Ficoll-Histopaque (Sigma-Aldrich, A0561) density gradient centrifugation. After isolation, PBMCs were stored in liquid nitrogen for later use. Upon thawing, PBMC cell viability was determined in growth medium (RPMI media supplemented with 10% fetal bovine serum, 1% Pen-Strep and 1% L-glutamine). Compounds were spotted in a 1:3 serial dilution in DMSO and diluted to the final concentration in 30 µl medium in 96 well plates (Falcon, 353072). PBMCs were added at a density of 7.5 × 10^4 cells per well and incubated for 30 min in a 5% CO2 incubator at 37° C. LPS stimulation was performed by addition of 100 ng/ml LPS (final concentration, Invivogen, tlrl-smlps) for 6 hrs followed by collection of cellular supernatant and the analysis of IL-1β […] and TNF cytokines levels (µM) via MSD technology according to manufacturers’ guidelines (MSD, K151A0H).
(§2) The IC50 values (for IL-1β) and EC50 values (TNF) were obtained on compounds of the invention/examples, and are depicted in the following table: […]

TNF = assay: PBMC assay: LPS-stimulated TNF cytokine levels; format: cell-based; settings: human PBMCs, 30 min compound pre-incubation, 100 ng/ml LPS for 6 hrs, supernatant, MSD
Experimental: as §1, §2

Row | SMILES | melting point | IC50 (IL-1β; Homo sapiens, PBMC) | EC50 (TNF; Homo sapiens, PBMC) | IC50 (IL-1β) | EC50 (TNF)
1 | CC(C)c1cc2c(=O)n(CC(=O)Nc3ccncn3)nc(C(C)O)n2c1 (stereo not drawn) [Compound 36F, 2-[4-(1-hydroxyethyl)-7-isopropyl-1-oxo-pyrrolo[1,2-d] [1,2,4]triazin-2-yl]-N-pyrimidin-4-yl-acetamide] | 247.56 °C | 5.05 µM | > 10 µM | – | –
2 | CC(=O)NC(C)c1nn(CC(=O)Nc2ccncn2)c(=O)c2cc(C(C)C)cn12 (stereo not drawn) [Compound 65F] | 279.37 °C | 7.08 µM | > 10 µM | 6.9 µM | –
3 | CC(=O)c1cc2c(=O)n(CC(=O)Nc3ccncn3)nc(C(C)C)n2c1 [Compound 85F, 2-(7-acetyl-4-isopropyl-1-oxopyrrolo[1,2-d][1,2,4]triazin-2(1H)-yl)-N-(pyrimidin-4-yl)acetamide] | 262.3 °C | > 10 µM | > 10 µM | – | –
4 | CC(C)c1nn(CC(=O)Nc2ccncn2)c(=O)c2cc(-c3ccccc3)cn12 [Compound 47F] | 209.7 °C | > 10 µM | > 10 µM | – | –
5 | CC(C)c1nn(CC(=O)Nc2ccncn2)c(=O)c2cc(F)cn12 [Compound 7F] | 194.5 °C | > 10 µM | > 10 µM | – | –
6 | CC(C)c1nn(CC(=O)Nc2ccncc2F)c(=O)c2cc(Cl)cn12 [Compound 9F] | 211.91 °C | 3.4 µM | > 10 µM | – | –
7 | C=C(OC)c1nn(CC(=O)Nc2ccncn2)c(=O)c2cc(C(C)C)cn12 [Compound 27F, 2-[7-isopropyl-4-(1-methoxyvinyl)-1-oxo-pyrrolo[1,2-d][1,2,4]triazin-2-yl]-N-pyrimidin-4-yl-acetamide] | 201.01 °C | 1.89 µM | > 10 µM | – | –
8 | CCc1nn(CC(=O)Nc2ccccc2OC)c(=O)c2cccn12 [Compound 13F] | 167.68 °C | > 10 µM | > 10 µM | – | –
9 | CC(C)c1nn(CC(=O)NC2CCOCC2)c(=O)c2cc(-c3ccccc3)cn12 [Compound 48F] | 217.95 °C | > 10 µM | > 10 µM | – | –
10 | CC(C)c1nn(CC(=O)Nc2ccncn2)c(=O)c2cc(C(F)F)cn12 [Compound 29F] | 216.46 °C | 1.67 µM | > 10 µM | – | –
11 | C=C(C)c1cc2c(=O)n(CC(=O)Nc3ccncn3)nc(C(C)C)n2c1 [Compound 16F, 2-(4-isopropyl-1-oxo-7-(prop-1-en-2-yl)pyrrolo[1,2-d][1,2,4]triazin-2(1H)-yl)-N-(pyrimidin-4-yl)acetamide] | 185.03 °C | 3.7 µM | > 10 µM | – | –
12 | CC(=O)c1nn(CC(=O)Nc2ccncn2)c(=O)c2cc(C(C)C)cn12 [Compound 35F, 2-(4-acetyl-7-isopropyl-1-oxo-pyrrolo[1,2-d][1,2,4]triazin-2-yl)-N-pyrimidin-4-yl-acetamide] | 284.78 °C | > 10 µM | > 10 µM | – | –
13 | CCCc1cc2c(=O)n(CC(=O)Nc3ccncn3)nc(OC)n2c1 [Compound 54F] | – | 2.51 µM | > 10 µM | – | –
14 | CC(C)c1cc2c(=O)n(CC(=O)NC3CCOCC3)nc(C(C)C)n2c1 [Compound 51F] | 181.03 °C | ~1.77 µM | > 10 µM | – | –
15 | CC(C)c1nn(CC(=O)Nc2ccncn2)c(=O)c2cc(CN(C)C)cn12 [Compound 43F, 2-(7-((dimethylamino)methyl)-4-isopropyl-1-oxopyrrolo[1,2-d][1,2,4]triazin-2(1H)-yl)-N-(pyrimidin-4-yl)acetamide] | – | > 10 µM | > 10 µM | – | –
16 | CC(C)c1nn(CC(=O)Nc2ccncn2)c(=O)c2cc(C3CCOCC3)cn12 [Compound 79F] | – | > 10 µM | > 10 µM | – | –
17 | COCc1cc2c(=O)n(CC(=O)Nc3ccncn3)nc(C(C)C)n2c1 [Compound 3F] | – | 7.85 µM | > 10 µM | – | –
18 | CC(=O)N(C)Cc1cc2c(=O)n(CC(=O)Nc3ccncn3)nc(C(C)C)n2c1 [Compound 70F, N-((4-isopropyl-1-oxo-2-(2-oxo-2-(pyrimidin-4-ylamino)ethyl)-1,2-dihydropyrrolo[1,2-d][1,2,4]triazin-7-yl)methyl)-N-methylacetamide] | – | > 10 µM | > 10 µM | – | –
19 | CC(C)c1nn(CC(=O)Nc2ccncn2)c(=O)c2cccn12 [Compound 11F] | – | > 10 µM | > 10 µM | – | –
20 | CC(C)c1nn(CC(=O)Nc2ccncc2F)c(=O)c2cc(Br)cn12 [Compound 2F] | – | – | – | 1.26 µM | > 10 µM
21 | CC(C)c1nn(CC(=O)Nc2ccncc2F)c(=O)c2cc(F)cn12 [Compound 52F] | – | > 10 µM | > 10 µM | – | –
22 | COC(C)c1nn(CC(=O)Nc2ccncn2)c(=O)c2cc(C(C)C)cn12 (stereo not drawn) [Compound 31F, 2-[7-isopropyl-4-(1-methoxyethyl)-1-oxo-pyrrolo[1,2-d][1,2,4]triazin-2-yl]-N-pyrimidin-4-yl-acetamide] | – | 5.14 µM | > 10 µM | – | –
23 | CC(=O)N1CC(c2nn(CC(=O)Nc3ccncn3)c(=O)c3cc(C(C)C)cn23)C1 [Compound 46F] | – | > 10 µM | > 10 µM | – | –
24 | CC(C)c1cc2c(=O)n(CC(=O)N[C@H]3C[C@@](C)(O)C3)nc(C(C)OC3CC3)n2c1 (stereo partly drawn) [Compound 62F] | – | 2.23 µM | > 10 µM | – | –
25 | CNC(=O)c1cc2c(=O)n(CC(=O)Nc3ccncn3)nc(C(C)C)n2c1 [Compound 76F, 4-isopropyl-N-methyl-1-oxo-2-(2-oxo-2-(pyrimidin-4-ylamino)ethyl)-1,2-dihydropyrrolo[1,2-d][1,2,4]triazine-7-carboxamide] | – | > 10 µM | > 10 µM | – | –

More lines, in order of falling IC50 (IL-1β; Homo sapiens, PBMC), values ahead:

Row | melting point | IC50 (IL-1β; Homo sapiens, PBMC) | EC50 (TNF; Homo sapiens, PBMC) | IC50 (IL-1β) | EC50 (TNF) | SMILES
26 | – | 1.66 µM | > 10 µM | – | – | CC(C)c1cc2c(=O)n(CC(=O)Nc3ccncn3)nc(N(C)CC3CC3)n2c1 [Compound 57F]
27 | 156.3 °C | 1.4 µM | > 10 µM | – | – | CCc1cc2c(=O)n(CC(=O)Nc3ccncn3)nc(N(C)CC)n2c1 [Compound 74F]
28 | 201.37 °C | 1.37 µM | > 10 µM | – | – | COCc1nn(CC(=O)Nc2ccncn2)c(=O)c2cc(C(C)C)cn12 [Compound 63F]
29 | 150.14 °C | 1.32 µM | > 10 µM | – | – | CCN(C)c1nn(CC(=O)Nc2ccncn2)c(=O)c2cc(C(C)C)cn12 [Compound 26F]
30 | 166.41 °C | 1.01 µM | > 10 µM | – | – | CCCCc1nn(CC(=O)Nc2ccncn2)c(=O)c2cc(C(C)C)cn12 [Compound 61F]
31 | 184.19 °C | 0.89 µM | > 10 µM | – | – | COCCc1nn(CC(=O)Nc2ccncn2)c(=O)c2cc(C(C)C)cn12 [Compound 24F]
32 | 142.64 °C | 0.67 µM | > 10 µM | – | – | CCc1cc2c(=O)n(CC(=O)Nc3ccncc3F)nc(C(C)C)n2c1 [Compound 22F]
33 | 149.7 °C | 0.47 µM | > 10 µM | – | – | CCCc1cc2c(=O)n(CC(=O)Nc3ccncn3)nc(C(C)C)n2c1 [Compound 59F]
34 | 182.51 °C | ~0.38 µM | > 10 µM | – | – | CC(C)c1nn(CC(=O)Nc2ccncn2)c(=O)c2cc(C3CC3)cn12 [Compound 50F]
35 | 171.4 °C | 0.37 µM | – | – | – | CCc1cc2c(=O)n(CC(=O)N[C@H]3C[C@@](C)(O)C3)nc(N(C)C)n2c1 [Compound 58F]
36 | 166.33 °C | 0.36 µM | > 10 µM | – | – | CC(C)c1cc2c(=O)n(CC(=O)Nc3ccncn3)nc(N(C)C)n2c1 [Compound 55F]
37 | 178.1 °C | 0.35 µM | > 10 µM | – | – | CCc1cc2c(=O)n(CC(=O)Nc3ccncn3)nc(N(C)C)n2c1 [Compound 73F, 2-(4-(dimethylamino)-7-ethyl-1-oxopyrrolo[1,2-d][1,2,4]triazin-2(1H)-yl)-N-(pyrimidin-4-yl)acetamide]
38 | – | 0.33 µM | > 10 µM | – | – | CC(C)c1cc2c(=O)n(CC(=O)Nc3ccncc3F)nc(C(C)C)n2c1 [Compound 18F]
39 | 224.87 °C | 0.32 µM | > 10 µM | – | – | C/C(=N/O)c1nn(CC(=O)N[C@H]2C[C@@](C)(O)C2)c(=O)c2cc(C(C)C)cn12 [Compound 64F]
40 | – | 0.28 µM | > 10 µM | – | – | CCc1cc2c(=O)n(CC(=O)Nc3ccncn3)nc(C(C)C)n2c1 [Compound 23F]
41 | – | 0.24 µM | > 10 µM | – | – | CC(C)c1nn(CC(=O)N[C@H]2C[C@@](C)(O)C2)c(=O)c2cc(I)cn12 [Compound 72F]
42 | 196.59 °C | 0.16 µM | > 10 µM | – | – | CC(C)c1cc2c(=O)n(CC(=O)N[C@H]3C[C@@](C)(O)C3)nc(C(C)C)n2c1 [Compound 68F]
43 | – | 0.14 µM | 19.8 µM | 0.26 µM | > 10 µM | CC(C)c1nn(CC(=O)Nc2ccc3nncn3c2)c(=O)c2cc(I)cn12 [Compound 71F]
